Source: patent US20040033982A1, “Viral inhibition by n-docosanol” (priority 2001, published 2004)

Tests used:
[1] = test system: acyclovir-resistant HSV-2; test: Plaque formation by acyclovir-resistant HSV-2 in Vero cells; format: cell-based; settings: FIG. 7, Panel B
Description: FIG. 7 depicts data showing that n-docosanol inhibits acyclovir-resistant HSV-2. Vero cells were cultured in 35-mm wells (6×10^5 cells per well) in medium alone (=none) or in the presence of the indicated concentration of acyclovir, n-docosanol-Pluronic F-68 suspension or control suspension (Pluronic F-68 only). The cultures were inoculated 24 hours later with 150 PFU of either wild-type HSV-2 or an acyclovir-resistant laboratory isolate from the wild-type HSV-2 that was plaque purified and passaged in 20 μg/ml acyclovir 44 hours later, the plates were incubated, fixed, stained, and scored for numbers of plaques. The data presented are means of plaques scored from duplicate cultures. The percent inhibition observed in cultures treated with acyclovir or n-docosanol relative to untreated control cultures is denoted in parentheses.

[2] = test system: HSV-2; test: HSV-2 internalization into Vero cells (citrate buffer wash); format: cell-based
Description: FIG. 9 depicts data showing that HSV-2 remains on the surface of n-docosanol treated Vero cells for prolonged times. Vero cells were cultured as described in the legend to FIG. 7 and incubated overnight. The cultures were then chilled to 4° C., inoculated with 100 PFU of HSV-2, and incubated 3 hours at 4° C. At time zero the cultures were washed with medium, inoculated with fresh medium (containing the indicated inhibitor) and incubated at 37° C. At each indicated time period, the cultures were washed with citrate buffer (pH 2.5) and reinoculated with fresh medium (lacking inhibitor). After a total of 44 hours incubation the cultures were stained and scored for HSV-2-induced plaques. The data are expressed as geometric means and standard errors derived from triplicate cultures per group.
In this experiment, HSV-2 was incubated with Vero cells in the absence or presence of n-docosanol at 4° C. to allow for receptor binding of the virus. At the end of 3 hours, all cultures were washed and then replated at 37° C. in order to initiate the viral entry process. At 20 minute intervals thereafter, the various cultures were exposed to pH 3.0 citrate buffer, conditions which remove and inactivate surface-bound, but not internalized, HSV virions, and then re-cultured the full 44 hour period required to develop optimal HSV plaques.

[3] = test system: HSV; test: HSV antigens by ELISA, ICP4 immunofluorescence, secondary plaque assay; format: cell-based
Source text: Thus, the amounts of both HSV core and envelope protein antigens detectable by ELISA, as well as the numbers of infected cells expressing the intranuclear HSV-specific immediate-early protein, ICP4, by immunofluorescence, are reduced by more than 80%. Finally, the replication of infectious virions as measured in secondary plaque assay cultures is markedly diminished by 99% or more in n-docosanol treated cells.

[4] = test system: HSV; test: HSV-induced plaques in Vero versus MDBK cells; format: cell-based
Source text: Of the counts that are metabolized in two cells lines, the relative amounts in the major classes of phosphatides that are formed, phosphatidylcholine and phosphatidylethanolamine, are not different in the two cell lines.

[5] = test system: Friend virus; test: Friend virus induced leukemia and viremia in mice; format: in vivo, BALB/c mice; settings: intravenous, day of virus and once daily for the next 3 days
Description: FIG. 12 depicts data showing that n-docosanol inhibits in vivo Friend virus induced leukemia and viremia. Adult BALB/c mice were injected intravenously with 75 spleen focus-forming units of FV. Treated groups were injected intravenously with the indicated doses of n-docosanol or Pluronic vehicle alone on the same day as virus inoculation and once daily for the next 3 days. After 10 days, half of the animals in each group were sacrificed and examined for leukemic foci in their spleens (panel A). The remaining mice were retained 10 more days and bled for viremia determinations (panel B). Viremia was measured using the X-C plaque assay. Briefly, primary fibroblast cultures were derived by digestion of 14-day BALB/c embryos with trypsin and culturing in DMEM plus 10% fetal calf serum. After 72 hours, the cells were transferred into 16-mm dishes (10^5/well), pretreated with 5 μg/ml polybrene and then infected with 75 X-C plaque-forming units of Friend virus stock or dilution of test plasma. After incubation for 7 days, the cultures were irradiated and overlaid with X-C cells (3×10^5/well). Three days later, the cultures were washed, stained, and scored for plaques of multinucleated giant cells. The data presented are geometric means and standard errors of splenic foci or X-C plaque-forming units derived from three animals per group. […]

[6] = test system: Friend Virus; test: Friend Virus replication in primary embryo fibroblast cultures; format: cell-based
[7] = Toxic, mutagenic, teratogenic properties

CCCCCCCCCCCCCCCCCCCCCCO [n-docosanol]
inhibition of plaque formation [1]: inhibited
time for internalization to reach completion [2]: more than 1 hour
internalization of HSV complete ([2]; 20 minutes after the shift to 37° C.): less than 40%
reduction of HSV core and envelope protein antigens detectable by ELISA [3]: more than 80%
reduction of numbers of infected cells expressing ICP4 by immunofluorescence [3]: more than 80%
reduction of replication of infectious virions in secondary plaque assay cultures [3]: ≥ 99%
effectiveness in inhibiting HSV-induced plaques, Vero versus MDBK cells [4]: 3-4 fold
development of leukemic foci in spleens ([5]; day 10): very clear dose-related inhibitory affect
development of viremia ([5]; day 20): very clear dose-related inhibitory affect
activity against replication of Friend Virus [6]: very potent activity
toxic, mutagenic, or teratogenic properties [7]: lacks any toxic, mutagenic, or teratogenic properties
